Here are results for one compound from US10085963B2, “Process and compositions for achieving mammalian energy balance” (SAMI LABS LIMITED, priority 2015, dated 2018).

Data set [1] concerns mammalian pre-adipocytes / adipocytes. The experiment in a line: Adipogenesis inhibition, Oil Red O staining. It is filed as cell-based. As to the method: […] C.) of 5% CO2 and 95% air; • f) Fixing, the cells of step e by adding 100 μl of 10% formalin and staining using the Oil Red O technique; • g) Reading the optical density of cells of step f at 492 nm in a microplate reader and expressing the results as inhibitory concentration (IC50) values using the graph pad prism software; • h) Calculating the percentage inhibition of adipogenesis in the cells of steps f and g using the formula, C-T/T×100, wherein C is the absorbance of Oil Red O in differentiating/undifferentiated cells and T is the absorbance of Oil Red O in sample treated differentiating/undifferentiated cells. • i) Adding 200 μl of freshly prepared Adipogenesis induction medium to the wells of step a. • j) Adding 200 μl of freshly prepared Adipogenesis progression medium comprising graded concentrations of forskolin (50 μg/ml and 100 μg/ml respectively) to the wells of step i after 72 hours of incubation with the Adipogenesis induction medium; • k) Incubating the cells treated with forskolin (step j), adipogenesis induction medium (step i) and adipogenesis progression medium (step j) for 48 hours in a humidified atmosphere (37 deg. C.) of 5% (CO2 and 95% air; • l) Fixing the cells of step 1 by adding 100 μl of 10% formal in and staining using the Oil Red O technique; • m) Reading the optical density of cells of step m at 492 nm in as microplate reader and expressing the results as inhibitory concentration (IC50) values using the graph pad prism software; • n) Calculating the percentage inhibition of adipogenesis in the cells of steps m and n using the formula, C-T/T×100, wherein C is the absorbance of Oil Red O in differentiating/undifferentiated cells and T is the absorbance of Oil Red O in sample treated differentiating/undifferentiated cells; and • o) Comparing percentage inhibition of adipogenesis in the cells of steps h and o.

For data set [2] the following is noted: administration in humans; cited from earlier work.

Each structure is given as a SMILES string.

For `C=C[C@@]1(C)CC(=O)[C@]2(O)[C@@]3(C)[C@@H](O)CCC(C)(C)[C@@H]3[C@H](O)[C@H](OC(C)=O)[C@@]2(C)O1` [forskolin], the inhibition at 6.25 µg/mL in data set [1] (Adipocyte, forskolin 6.25 μg/ml, read-out: % inhibition of adipogenesis when forskolin is added after differentiation of pre-adipocytes to the adipocyte stage) was 1.2%. The inhibition at 12.5 µg/mL in data set [1] (Adipocyte, forskolin 12.50 μg/ml, read-out: % inhibition of adipogenesis when forskolin is added after differentiation of pre-adipocytes to the adipocyte stage) worked out at 6.8%. In addition, the inhibition at 25 µg/mL in data set [1] (Adipocyte, forskolin 25 μg/ml, read-out: % inhibition of adipogenesis when forskolin is added after differentiation of pre-adipocytes to the adipocyte stage) was 10.6%. Further, in data set [1] (Adipocyte, forskolin 50 μg/ml, read-out: % inhibition of adipogenesis when forskolin is added after differentiation of pre-adipocytes to the adipocyte stage), the inhibition at 50 µg/mL worked out at 12.9%. In data set [1] (Adipocyte, forskolin 100 μg/ml, read-out: % inhibition of adipogenesis when forskolin is added after differentiation of pre-adipocytes to the adipocyte stage), the inhibition at 100 µg/mL was found to be 18.5%. Also, the “% inhibition of adipogenesis when forskolin is added at the pre-adipocyte stage (before differentiation into the adipocyte stage)” value in data set [1] (forskolin 6.25 μg/ml) was 10.2%; in data set [1] (forskolin 12.50 μg/ml), 12.8%; in data set [1] (forskolin 25 μg/ml) it was 19.7%; in data set [1] (forskolin 50 μg/ml) it was 35.5%; in data set [1] (forskolin 100 μg/ml), 41.8%. Also, in data set [2], the “clinically significant side effects” value is reported as “does not cause clinically significant side effects”.

A word on the inhibition: it is the change of the read-out against control, counted positive when it falls.
